Patent publication EP4467640A1, “MICROORGANISM AND METHOD FOR THE IMPROVED PRODUCTION OF CYSTEINE AND/OR DERIVATIVES THEREOF” (Metabolic Explorer, priority 2023, dated 2024)

What was measured:
[1] = biological target: O-phosphoserine sulfhydrylase from Mycolicibacterium smegmatis (OPSSmsm), SEQ ID NO: 104 (Mycolicibacterium smegmatis, UniProt A0R1X2); assay: O-phosphoserine sulfhydrylase (OPSS) activity, cysteine formation (Gaitonde method), kinetic parameters of purified enzyme; type: biochemical, Mycolicibacterium smegmatis (strain ATCC 700084 / mc(2)155)
O-phosphoserine sulfhydrylase from Mycolicibacterium smegmatis (OPSSmsm), SEQ ID NO: 104, sequence (A0R1X2 1-323): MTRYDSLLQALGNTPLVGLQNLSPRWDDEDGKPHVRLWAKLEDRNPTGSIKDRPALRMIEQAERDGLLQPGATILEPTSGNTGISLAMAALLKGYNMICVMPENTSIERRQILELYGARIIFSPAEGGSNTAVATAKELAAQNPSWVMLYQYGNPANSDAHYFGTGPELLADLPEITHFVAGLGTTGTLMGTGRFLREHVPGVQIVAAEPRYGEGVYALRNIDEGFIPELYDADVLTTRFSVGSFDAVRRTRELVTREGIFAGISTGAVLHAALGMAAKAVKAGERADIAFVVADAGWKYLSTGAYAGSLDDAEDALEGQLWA

[2] = system: O-phosphoserine sulfhydrylase from Dethiobacter alkaliphilus (OPSSdal), SEQ ID NO: 106; assay: as above; type: biochemical, Dethiobacter alkaliphilus AHT 1
Method: This reaction solution, except the enzymes, were incubated at 30°C for 10 min. After then, 0.5 to 1 µg of purified OPSS was added to the reaction solution, incubated at 30°C. 100 µl of the enzyme reaction solutions were taken after 5 min, 10 min, 15 min and mixed with 50 µl cold 1.5 M TCA to stop the enzymatic reaction. The cysteine concentrations in the enzyme reaction solution were quantified by measuring absorbance at OD560 nm according to Gaitonde method (Gaitonde,M.K. (1967), Biochem. J. 104, 627-633).
Kinetic parameters were determined using Sigmaplot.

[3] = biological target: O-phosphoserine sulfhydrylase from Geobacter sulfurreducens (OPSSgsu), SEQ ID NO: 2 (Geobacter sulfurreducens, UniProt Q747V7); assay: as above; type: biochemical; details: pH 7.5, 30°C; read-out: Km (Na2S)
[4] = biological target: O-phosphoserine sulfhydrylase from Rhodothermus marinus (OPSSrma), SEQ ID NO: 4 (Rhodothermus marinus, UniProt D0MJA5); assay: as above; type: biochemical, Rhodothermus marinus (strain ATCC 43812 / DSM 4252 / R-10); details: pH 7.5, 30°C; read-out: Km (Na2S)
[5] = substrate: N[C@@H](COP(=O)(O)O)C(=O)O; assay: purified protein, by the assay type; details: fixed Na2S 50 mM, O-phosphoserine 0.5-100 mM, 100 mM Hepes pH 7.5, 30°C

N[C@@H](COP(=O)(O)O)C(=O)O [OPS, O-phosphoserine]
inhibition at 20000 µM ([1]; read-out: activity lost (inhibition by O-Phosphoserine)): 50%
kcat ([2]; calculated from the O-phosphoserine saturation curves, Na2S 50 mM, pH 7.5, 30°C): 19 s⁻¹
Km ([2]; read-out: Km (OPS), fixed Na2S 50 mM, O-phosphoserine 0.5-100 mM, 100 mM Hepes pH 7.5, 30°C): 17 mM

Na2S
Km ([1]; pH 7.5, 30°C, read-out: Km (Na2S)): 1.4 mM
Km [3]: 16 mM
Km [4]: 13 mM

B1: O-phosphoserine sulfhydrylase from Geobacter sulfurreducens (OPSSgsu), SEQ ID NO: 2 (Geobacter sulfurreducens PCA) (protein)
chain: MEHPPFSLAGSIGATPLVELRHLNPNPRVRILAKLEGNNVGGSVKDRPALYMLAKAEESGELVPEKTILEPTSGNTGIALAMLGTVKGYRVKLVMPACVSLERRAVLEAYGAELVLSPHDEATDGAIRLAHRILEEEPDRYYMPNQYANPNNPLAHYETTAPEIFRDTGGAVDFFVAGMGTGGTLMGTSRYFREKKPSVRIVGVEPRLGHKVQGLKNMQEAIVPPIYHPEALDLKLTVHDEPAFDTARELAAREGLFVGMSSGAAVAGAVQVARDAPAGSTIVVLLPDRGDRYLSTVLFRSVCGKCPP
Km ([5]; other: OPSSgsu): 16 mM
kcat ([5]; other: OPSSgsu): 58 s⁻¹

B2: O-phosphoserine sulfhydrylase from Rhodothermus marinus (OPSSrma), SEQ ID NO: 4 (Rhodothermus marinus DSM 4252) (protein)
chain: MFAETLQTTTNTRPLSGTELIRAIGHTPLIRLRRVARHLPETVAVYVKAEHLNPGGSVKDRPALRMVLEGLRSGALREGRALIDATSGNTGIAYAMLGAALGFPVTLAMPANASPERKRILKAYGAELILTDPMEGTDGAQRYVRELVQQEPDRYFYPDQYNNDANWRAHYEGTGIEILEQTGGRVTHFVAGLGTTGTFVGVSRRLKAHNPAIRCYALQPDSPLHGLEGLKHLETAIVPGIYDPSLVDEHLSCSTEEAFEMTRRLAREEGLFVGPSSGANVAAALHIAEQLDRGVVVTVLCDTGARYLSEPFWEETP
Km ([5]; other: OPSSrma): 6 mM
kcat ([5]; other: OPSSrma): 47 s⁻¹
